Activity calls are given as the source filed them.
Tests used:
[1] = molecular target: T1, Tyrosine-protein phosphatase non-receptor type 7 (Homo sapiens, UniProt P35236); format: functional
T1 sequence (P35236 whole entry): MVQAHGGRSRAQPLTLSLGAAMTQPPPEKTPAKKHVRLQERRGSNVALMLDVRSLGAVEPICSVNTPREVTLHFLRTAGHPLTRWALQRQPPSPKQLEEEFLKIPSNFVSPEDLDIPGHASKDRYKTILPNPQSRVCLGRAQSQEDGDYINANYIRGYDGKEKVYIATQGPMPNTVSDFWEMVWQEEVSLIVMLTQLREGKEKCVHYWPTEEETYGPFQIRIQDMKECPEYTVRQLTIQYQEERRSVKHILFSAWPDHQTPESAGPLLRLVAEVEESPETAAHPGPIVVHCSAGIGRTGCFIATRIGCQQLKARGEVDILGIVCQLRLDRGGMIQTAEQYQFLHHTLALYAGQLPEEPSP

[2] = molecular target: T2, Tyrosine-protein phosphatase non-receptor type 22 (Homo sapiens, UniProt Q9Y2R2); format: functional
T2 sequence (Q9Y2R2 whole entry): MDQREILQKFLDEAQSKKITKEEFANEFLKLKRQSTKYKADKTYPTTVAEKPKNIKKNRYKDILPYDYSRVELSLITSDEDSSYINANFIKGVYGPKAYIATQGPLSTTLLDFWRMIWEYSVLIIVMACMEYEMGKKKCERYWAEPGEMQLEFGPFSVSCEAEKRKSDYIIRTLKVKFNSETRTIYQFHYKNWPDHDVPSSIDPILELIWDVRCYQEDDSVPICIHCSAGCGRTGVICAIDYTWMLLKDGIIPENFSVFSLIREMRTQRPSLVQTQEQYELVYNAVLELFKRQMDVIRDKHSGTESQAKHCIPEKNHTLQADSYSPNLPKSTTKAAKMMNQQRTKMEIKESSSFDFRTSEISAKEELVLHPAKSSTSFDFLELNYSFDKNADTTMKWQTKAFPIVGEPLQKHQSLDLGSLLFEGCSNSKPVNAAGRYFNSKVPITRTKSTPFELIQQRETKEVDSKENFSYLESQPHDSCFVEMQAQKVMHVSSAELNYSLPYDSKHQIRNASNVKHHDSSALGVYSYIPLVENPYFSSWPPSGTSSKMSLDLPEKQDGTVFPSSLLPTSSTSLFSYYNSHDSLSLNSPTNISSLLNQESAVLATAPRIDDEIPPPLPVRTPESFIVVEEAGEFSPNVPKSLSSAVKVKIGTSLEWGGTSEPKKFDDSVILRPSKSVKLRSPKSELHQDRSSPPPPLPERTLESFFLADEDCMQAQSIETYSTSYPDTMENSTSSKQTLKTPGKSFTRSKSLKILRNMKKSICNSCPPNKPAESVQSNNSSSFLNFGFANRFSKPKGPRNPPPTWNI

[3] = molecular target: T2, Tyrosine-protein phosphatase non-receptor type 22; format: functional; remark: listed apart in the source
[4] = molecular target: Alkaline phosphatase, placental type (Homo sapiens, UniProt P05187); assay: human placental alkaline phosphatase inhibition – biochemical, luminescence, confirmation (AID 1512); format: functional
Sequence of Alkaline phosphatase, placental type (P05187 whole entry): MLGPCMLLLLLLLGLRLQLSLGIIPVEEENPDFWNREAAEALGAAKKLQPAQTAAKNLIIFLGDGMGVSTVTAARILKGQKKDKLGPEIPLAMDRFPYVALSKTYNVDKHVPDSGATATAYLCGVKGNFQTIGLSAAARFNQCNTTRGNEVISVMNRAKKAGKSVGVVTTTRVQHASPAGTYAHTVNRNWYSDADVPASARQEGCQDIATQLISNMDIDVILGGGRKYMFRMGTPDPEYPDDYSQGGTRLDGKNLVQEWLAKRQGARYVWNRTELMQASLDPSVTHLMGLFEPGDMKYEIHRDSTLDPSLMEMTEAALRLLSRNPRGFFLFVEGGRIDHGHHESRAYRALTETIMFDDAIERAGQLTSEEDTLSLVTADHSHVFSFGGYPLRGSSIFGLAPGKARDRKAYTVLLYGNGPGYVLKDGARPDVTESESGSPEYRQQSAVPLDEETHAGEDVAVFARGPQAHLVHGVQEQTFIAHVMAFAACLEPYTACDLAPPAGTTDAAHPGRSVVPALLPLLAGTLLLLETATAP

[5] = molecular target: T3, Alkaline phosphatase, tissue-nonspecific isozyme (Homo sapiens, UniProt P05186); assay: potency against alkaline phosphatase TNAP – biochemical, luminescent, dose response, SAR follow-up (AID 1056)
T3 sequence (P05186 whole entry): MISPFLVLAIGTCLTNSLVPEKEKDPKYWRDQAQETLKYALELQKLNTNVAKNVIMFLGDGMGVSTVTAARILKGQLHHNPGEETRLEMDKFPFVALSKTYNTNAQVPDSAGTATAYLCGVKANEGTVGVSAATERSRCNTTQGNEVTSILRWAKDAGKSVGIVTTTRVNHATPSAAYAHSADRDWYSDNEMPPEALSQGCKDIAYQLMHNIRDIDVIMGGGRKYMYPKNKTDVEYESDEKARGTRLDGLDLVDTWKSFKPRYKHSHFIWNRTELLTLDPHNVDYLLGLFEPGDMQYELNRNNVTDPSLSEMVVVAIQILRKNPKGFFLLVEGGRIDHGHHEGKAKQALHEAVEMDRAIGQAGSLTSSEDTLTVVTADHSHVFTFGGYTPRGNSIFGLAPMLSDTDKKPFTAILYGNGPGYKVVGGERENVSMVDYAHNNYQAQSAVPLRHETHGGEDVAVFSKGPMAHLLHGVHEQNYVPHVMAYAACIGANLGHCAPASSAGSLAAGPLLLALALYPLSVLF

[6] = test system: Streptococcus sp. 'group A'; assay: Streptococcus pyogenes SK(-)GAS viability under kanamycin – luminescence, BacTiterGlo, confirmation, counter-screen for streptokinase expression inhibitor project, dose response (AID 1900); format: functional, organism-based
Streptokinase A = molecular target: T4, Streptokinase A (Streptococcus pyogenes serotype M1, UniProt P10520); assay: viability-normalized secreted streptokinase activity reduction – plasminogen activation absorbance, OD405, dose response (AID 1914); format: functional, Streptococcus pyogenes M1 GAS;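 note: secreted streptokinase activity via plasminogen activation per viability signal from cell pellet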
T4 sequence (P10520 whole entry): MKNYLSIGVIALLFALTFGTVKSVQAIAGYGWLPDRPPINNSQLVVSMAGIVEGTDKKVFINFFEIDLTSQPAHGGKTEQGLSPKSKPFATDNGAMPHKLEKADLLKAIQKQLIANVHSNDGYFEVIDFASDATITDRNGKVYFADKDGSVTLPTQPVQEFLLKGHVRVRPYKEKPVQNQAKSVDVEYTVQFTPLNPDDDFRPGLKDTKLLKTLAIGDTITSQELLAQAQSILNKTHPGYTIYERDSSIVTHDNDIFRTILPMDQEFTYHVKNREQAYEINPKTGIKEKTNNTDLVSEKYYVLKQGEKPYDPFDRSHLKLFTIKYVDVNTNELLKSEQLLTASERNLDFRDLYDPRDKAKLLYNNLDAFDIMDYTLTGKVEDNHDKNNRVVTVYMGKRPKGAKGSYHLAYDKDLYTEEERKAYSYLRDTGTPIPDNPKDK

Streptococcus = assay: GAS UMAA2166 growth inhibition – luminescence, BacTiterGlo, counter-screen for streptokinase expression inhibitor project, dose response (AID 1915); format: functional, organism-based;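 note: potency for reduction of bacterial viability or growth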
Coagulation factor XII = Coagulation factor XII (Homo sapiens, UniProt P00748); format: functional;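 note: activated factor XIIa alpha cleaving a fluorogenic AMC peptide substrate; inhibitor potency from loss of enzyme activity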
Sequence of Coagulation factor XII (P00748 20-372 limits assumed): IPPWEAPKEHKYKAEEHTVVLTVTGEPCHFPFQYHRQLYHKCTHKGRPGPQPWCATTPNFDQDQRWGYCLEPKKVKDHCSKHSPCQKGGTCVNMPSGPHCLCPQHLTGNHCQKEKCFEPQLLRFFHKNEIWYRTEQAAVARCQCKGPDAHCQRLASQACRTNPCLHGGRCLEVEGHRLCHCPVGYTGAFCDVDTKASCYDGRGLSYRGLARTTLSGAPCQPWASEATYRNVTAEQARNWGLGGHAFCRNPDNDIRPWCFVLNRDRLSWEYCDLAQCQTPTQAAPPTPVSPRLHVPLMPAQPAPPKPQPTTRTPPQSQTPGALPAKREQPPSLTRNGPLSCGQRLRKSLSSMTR
Sequence of Coagulation factor XII (P00748 373-615 limits assumed): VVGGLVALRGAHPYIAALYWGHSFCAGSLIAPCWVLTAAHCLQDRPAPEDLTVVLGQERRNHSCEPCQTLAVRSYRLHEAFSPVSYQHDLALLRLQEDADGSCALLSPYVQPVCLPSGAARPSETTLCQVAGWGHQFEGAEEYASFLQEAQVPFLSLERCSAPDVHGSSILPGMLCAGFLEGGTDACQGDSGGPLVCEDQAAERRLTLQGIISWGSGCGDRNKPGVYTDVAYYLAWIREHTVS

Hexokinase = Hexokinase (Trypanosoma brucei, UniProt Q38C41); assay: Confirmation assay for inhibitors of Trypanosoma brucei hexokinase 1-Analogue-first series. [Related pubchem assays (depositor defined):AID1430, AID1632, AID2516, AID2560, AID2579, AID2600, AID449725, AID492951]; format: functional
Sequence of Hexokinase (Q38C41 whole entry): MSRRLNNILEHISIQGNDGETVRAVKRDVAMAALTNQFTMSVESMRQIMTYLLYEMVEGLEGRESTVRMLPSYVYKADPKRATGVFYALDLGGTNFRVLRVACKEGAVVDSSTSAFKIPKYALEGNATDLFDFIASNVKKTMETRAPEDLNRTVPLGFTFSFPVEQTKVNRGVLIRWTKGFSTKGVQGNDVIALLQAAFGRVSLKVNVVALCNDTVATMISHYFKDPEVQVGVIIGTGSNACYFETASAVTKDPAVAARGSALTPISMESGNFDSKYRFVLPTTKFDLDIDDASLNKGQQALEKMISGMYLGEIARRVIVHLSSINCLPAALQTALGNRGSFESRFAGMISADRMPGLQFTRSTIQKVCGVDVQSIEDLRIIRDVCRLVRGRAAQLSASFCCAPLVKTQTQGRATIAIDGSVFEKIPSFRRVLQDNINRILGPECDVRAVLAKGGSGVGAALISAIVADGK

[7] = molecular target: Glucose-6-phosphate 1-dehydrogenase (Homo sapiens, UniProt P11413); assay: inhibition of Homo sapiens G6PD, dose series – biochemical, fluorescence, selectivity assay for P. falciparum G6PD inhibitor project, dose response (AID 504792); format: functional
Sequence of Glucose-6-phosphate 1-dehydrogenase (P11413 whole entry): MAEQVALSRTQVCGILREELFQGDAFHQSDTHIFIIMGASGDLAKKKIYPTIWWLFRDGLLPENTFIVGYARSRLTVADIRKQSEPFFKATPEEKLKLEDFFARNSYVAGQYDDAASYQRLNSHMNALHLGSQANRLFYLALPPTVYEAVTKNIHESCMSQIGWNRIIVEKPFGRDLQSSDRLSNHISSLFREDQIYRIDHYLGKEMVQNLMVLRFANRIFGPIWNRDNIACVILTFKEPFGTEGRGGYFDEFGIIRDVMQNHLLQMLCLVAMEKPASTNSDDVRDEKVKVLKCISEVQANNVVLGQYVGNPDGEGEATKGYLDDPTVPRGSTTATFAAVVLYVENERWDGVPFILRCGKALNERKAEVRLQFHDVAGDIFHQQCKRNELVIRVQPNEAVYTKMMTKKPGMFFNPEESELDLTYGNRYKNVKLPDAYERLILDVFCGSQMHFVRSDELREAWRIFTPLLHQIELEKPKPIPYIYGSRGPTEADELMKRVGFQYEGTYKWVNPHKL

Phosphomannomutase 2 = molecular target: T5, Phosphomannomutase 2 (Homo sapiens, UniProt O15305); assay: Counter screen SAR assay for PMM2 inhibitors via a fluorescence intensity assay. [Related pubchem assays (depositor defined):AID1545, AID1574]
T5 sequence (O15305 whole entry): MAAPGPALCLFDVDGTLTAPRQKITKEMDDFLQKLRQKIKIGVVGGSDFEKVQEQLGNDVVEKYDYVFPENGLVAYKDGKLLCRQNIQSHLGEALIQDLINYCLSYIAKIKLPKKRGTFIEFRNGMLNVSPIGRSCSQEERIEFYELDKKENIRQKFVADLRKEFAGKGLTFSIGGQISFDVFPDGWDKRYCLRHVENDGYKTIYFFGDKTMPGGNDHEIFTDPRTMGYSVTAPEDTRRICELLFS

[8] = viability loss in HeLa cells – cytotoxicity control for MgcRacGAP inhibitor project, dose response (AID 624300); format: functional
[9] = molecular target: T6, Rac GTPase-activating protein 1 (Homo sapiens, UniProt Q9H0H5); assay: blockers of MgcRacGAP-driven Rac1 GTP hydrolysis – biochemical, ADP Hunter fluorescence, primary and confirmatory, confirmation (AID 624330); format: functional
T6 sequence (Q9H0H5 whole entry): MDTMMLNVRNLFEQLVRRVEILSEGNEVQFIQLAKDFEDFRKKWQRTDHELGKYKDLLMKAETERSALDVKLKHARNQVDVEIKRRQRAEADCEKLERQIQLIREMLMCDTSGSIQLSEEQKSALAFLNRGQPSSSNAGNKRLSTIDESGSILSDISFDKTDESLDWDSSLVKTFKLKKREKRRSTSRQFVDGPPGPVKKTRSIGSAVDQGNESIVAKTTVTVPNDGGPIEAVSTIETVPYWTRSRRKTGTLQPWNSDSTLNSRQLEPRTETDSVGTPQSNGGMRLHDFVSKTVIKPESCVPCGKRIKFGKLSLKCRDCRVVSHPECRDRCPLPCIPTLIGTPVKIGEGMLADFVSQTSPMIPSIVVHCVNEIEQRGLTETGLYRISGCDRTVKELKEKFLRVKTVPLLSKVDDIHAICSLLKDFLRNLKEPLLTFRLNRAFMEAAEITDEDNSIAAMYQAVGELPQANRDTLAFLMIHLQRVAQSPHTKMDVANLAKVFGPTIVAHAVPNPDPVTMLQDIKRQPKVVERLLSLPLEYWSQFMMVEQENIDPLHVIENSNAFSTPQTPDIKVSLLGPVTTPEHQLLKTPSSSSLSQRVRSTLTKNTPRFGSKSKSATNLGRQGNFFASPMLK

In the case of CCNS(=O)(=O)c1cc(S(C)(=O)=O)ccc1Cl, the IC50 [1] is reported as > 79.4 µM (inactive), the IC50 [2] is reported as > 79.4 µM (inactive) and the IC50 [3] is reported as > 79.4 µM (inactive).

For Oc1ccc(C2=Nn3c(nnc3-c3ccccc3Cl)SC2)cc1O, the IC50 [4] was 15 µM (active) and the IC50 [5] was 4.02 µM (active).

For O=C(Nc1ncc(Cc2ccccc2)s1)c1cccs1, the EC50 [6] was 15.6 µM (active), the EC50 (Streptokinase A) was > 150 µM (not active) and the EC50 (Streptococcus) was > 150 µM (not active). The IC50 (Coagulation factor XII) was > 50 µM (inactive).

With O=c1c2ccccc2sn1-c1ccc(Cl)cc1 the IC50 (Hexokinase) was 1.1 µM (active), the IC50 [7] was 10.5 µM (active) and the IC50 (Phosphomannomutase 2) was 35.6 µM (active). The CC50 [8] was 100 µM (active) and the IC50 [9] was 34.7 µM (active).

Reference: ChEMBL document CHEMBL1201862, “PubChem BioAssay data set” (2004)
